Data from patent publication US12357698B1, “FUS proteolysis-targeting chimera, preparation method and applications thereof” (SHANDONG NORMAL UNIVERSITY, priority 2024, dated 2025).
Where a chain is given by its changes, count along the chain named.

Key:
Format in all cases: cell-based
FUS-R521C = target: T1, FUS-R521C (Homo sapiens, UniProt P35637, R521C); test: Degradation of mutant FUS-R521C in 293T cells, Western blot; details: 1000 nM, 24 hours
T1 construct: expressed in transfected cells; host or cells: 293T cells
T1 sequence (P35637 1-526 R521C): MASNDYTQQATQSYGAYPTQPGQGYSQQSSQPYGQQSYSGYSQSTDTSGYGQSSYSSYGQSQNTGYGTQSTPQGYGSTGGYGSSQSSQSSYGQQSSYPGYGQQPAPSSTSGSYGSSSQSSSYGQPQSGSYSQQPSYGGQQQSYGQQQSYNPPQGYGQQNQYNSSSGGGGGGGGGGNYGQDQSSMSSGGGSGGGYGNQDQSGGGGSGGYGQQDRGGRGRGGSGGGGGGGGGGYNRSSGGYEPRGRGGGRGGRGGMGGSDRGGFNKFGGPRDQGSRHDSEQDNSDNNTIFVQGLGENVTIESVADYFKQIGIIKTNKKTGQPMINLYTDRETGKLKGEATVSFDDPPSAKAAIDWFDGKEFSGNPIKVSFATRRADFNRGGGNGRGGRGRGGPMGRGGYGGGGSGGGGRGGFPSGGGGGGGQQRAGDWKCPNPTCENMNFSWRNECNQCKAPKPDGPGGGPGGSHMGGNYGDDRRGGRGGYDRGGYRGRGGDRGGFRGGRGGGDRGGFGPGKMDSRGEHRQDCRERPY
Description: (§1) dFUS-C1 solutions were prepared at concentration gradients of 37.5 nM, 62.5 nM, 125 nM, 250 nM, 500 nM, 1000 nM, and 2000 nM, and were transfected into 293T cells expressing different mutant FUS proteins using liposomes. After 24 hours, the cells were lysed, and changes in FUS protein were detected by Western blot. FIG. 11A to FIG. 11E show the degradation of different mutant FUS by dFUS-C1 in 293T cells.

FUS-P525L = target: T2, FUS-P525L (Homo sapiens, UniProt P35637, P525L); test: Degradation of mutant FUS-P525L in 293T cells, Western blot; details: 1000 nM, 24 hours
T2 construct: expressed in transfected cells; host or cells: 293T cells
T2 sequence (P35637 1-526 P525L): T1 sequence (P35637 1-526 R521C) with C521R, P525L
Description: as §1

SH-SY5Y cells = test: Neurotoxicity caused by FUS overexpression (ROS, LDH release, CCK8); details: SH-SY5Y cells transfected with FUS plasmids, CCK8 cell viability
Description: In this example, ROS detection kit, LDH release detection kit, and CCK8 reagent were used for cytotoxicity detection. Specifically: 5×10^3 SH-SY5Y cells were added to 96-well plates and cultured at 37° C., 5% CO2 cell incubator for 12 hours; FUS plasmids were transfected into the wells, then the cells were cultured at 37° C., 5% CO2 cell incubator for 24 hours, indicated reagents were added to each well, and corresponding indicators were detected according to the kit instructions.

FUS protein [1] = target: T3, FUS protein (Homo sapiens, UniProt P35637); test: FUS degradation in SH-SY5Y cells, Western blot; details: concentration gradient 9.4-125 nM, liposome transfection, 24 hours
T3 construct: endogenous in cells; host or cells: SH-SY5Y cells
T3 sequence (P35637 1-526): T1 sequence (P35637 1-526 R521C) with C521R
Description: (§2) dFUS-C1 solutions were prepared at concentration gradients of 9.4 nM, 18.7 nM, 37.5 nM, 62.5 nM, and 125 nM, and were transfected into PC12 or SH-SY5Y cells using liposomes. After 24 hours, the cells were lysed, and changes in FUS protein were detected by Western blot.
Then 15% non-denaturing polyacrylamide gel electrophoresis was performed at 120 V for about 70 min, followed by staining with SYBR Gold nucleic acid gel stain, and finally imaged using a Bio-RAD instrument. […] For testing the FUS protein degradation performance of dFUS-PS, dFUS-PS solutions were prepared at concentration gradients of 9.4 nM, 18.7 nM, 37.5 nM, 62.5 nM, and 125 nM, and were transfected into SH-SY5Y cells using liposomes. After 24 hours, the cells were lysed, and changes in FUS protein were detected by Western blot.

FUS-R521H = target: T4, FUS-R521H (Homo sapiens, UniProt P35637, R521H); test: Degradation of mutant FUS-R521H in 293T cells, Western blot; details: 1000 nM, 24 hours
T4 construct: expressed in transfected cells; host or cells: 293T cells
T4 sequence (P35637 1-526 R521H): T1 sequence (P35637 1-526 R521C) with C521H
Description: as §1

FUS-WT = target: T5, FUS-WT (Homo sapiens, UniProt P35637); test: Degradation of FUS-WT in 293T cells, Western blot; details: 1000 nM, 24 hours
T5 construct: expressed in transfected cells; host or cells: 293T cells
T5 sequence (P35637 1-526): T1 sequence (P35637 1-526 R521C) with C521R

FUS protein [2] = test: Proteomics before and after dFUS-C1 treatment
FUS protein [3] = target: T6, FUS protein (Rattus norvegicus, UniProt Q5PQK2); test: FUS degradation in PC12 cells, Western blot; details: liposome transfection, 24 hours
T6 construct: endogenous in cells; host or cells: PC12 cells
T6 sequence (Q5PQK2 1-515): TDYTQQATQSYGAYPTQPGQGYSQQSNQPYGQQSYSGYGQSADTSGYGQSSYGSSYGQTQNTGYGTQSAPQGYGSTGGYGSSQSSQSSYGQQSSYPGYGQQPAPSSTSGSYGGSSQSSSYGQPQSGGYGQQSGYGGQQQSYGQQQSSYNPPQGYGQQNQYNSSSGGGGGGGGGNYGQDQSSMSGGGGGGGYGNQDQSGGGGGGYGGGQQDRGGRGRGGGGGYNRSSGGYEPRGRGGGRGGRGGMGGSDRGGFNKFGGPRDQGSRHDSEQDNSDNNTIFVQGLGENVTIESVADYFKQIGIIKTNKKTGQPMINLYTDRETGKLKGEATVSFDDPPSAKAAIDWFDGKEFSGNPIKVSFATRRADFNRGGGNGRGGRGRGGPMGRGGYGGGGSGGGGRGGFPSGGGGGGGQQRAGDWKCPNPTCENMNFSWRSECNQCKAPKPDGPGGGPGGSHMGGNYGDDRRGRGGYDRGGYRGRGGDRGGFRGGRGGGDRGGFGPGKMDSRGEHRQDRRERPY
Description: The 10 PROTACs were transfected into PC12 cells at a final concentration of 125 nM using liposomes. After 24 hours, the cells were lysed, and changes in FUS protein were detected by Western blot.
as §2

FUS-R521G = target: T7, FUS-R521G (Homo sapiens, UniProt P35637, R521G); test: Degradation of mutant FUS-R521G in 293T cells, Western blot; details: 1000 nM, 24 hours
T7 construct: expressed in transfected cells; host or cells: 293T cells
T7 sequence (P35637 1-526 R521G): T1 sequence (P35637 1-526 R521C) with C521G
Description: as §1

Q: Which results are given for “dFUS-C1: PROTAC obtained by coupling FUS-1 (N3-FUS-RNA #1, SEQ ID NO: 1) with CRBN ligand (GUUUGGUGAUGUUUGGUGAU; RNA, backbone not given here; 5' azide via C6 amino linker, click-coupled to CRBN ligand (PROTAC))”?
A: degradation of FUS-R521C (FUS-R521C): could efficiently degrade; degradation of FUS-P525L (FUS-P525L): could efficiently degrade; neurotoxicity caused by FUS overexpression (SH-SY5Y cells): significantly inhibited the neurotoxicity caused by FUS overexpression; degradation of FUS protein (FUS protein [1]): could efficiently degrade FUS protein; degradation of FUS-R521H (FUS-R521H): could efficiently degrade; degradation of FUS-WT (FUS-WT): could efficiently degrade; specificity of degradation (proteomics) (FUS protein [2]): specific degradation effects on FUS protein; degradation of FUS protein (FUS protein [3]; 125 nM): stably and efficiently degrade FUS protein; degradation of FUS protein (FUS protein [3]; concentration gradient 9.4-125 nM): could efficiently degrade FUS protein; degradation of FUS-R521G (FUS-R521G): could efficiently degrade
